ChEMBL document CHEMBL5725825, “Inhibitors of IRAK4 activity” (2017)
pIC50: −log10 of the molar value.

Biological target: T1, Interleukin-1 receptor-associated kinase 4 (Homo sapiens, UniProt Q9NWZ3)
T1 sequence (Q9NWZ3 whole entry): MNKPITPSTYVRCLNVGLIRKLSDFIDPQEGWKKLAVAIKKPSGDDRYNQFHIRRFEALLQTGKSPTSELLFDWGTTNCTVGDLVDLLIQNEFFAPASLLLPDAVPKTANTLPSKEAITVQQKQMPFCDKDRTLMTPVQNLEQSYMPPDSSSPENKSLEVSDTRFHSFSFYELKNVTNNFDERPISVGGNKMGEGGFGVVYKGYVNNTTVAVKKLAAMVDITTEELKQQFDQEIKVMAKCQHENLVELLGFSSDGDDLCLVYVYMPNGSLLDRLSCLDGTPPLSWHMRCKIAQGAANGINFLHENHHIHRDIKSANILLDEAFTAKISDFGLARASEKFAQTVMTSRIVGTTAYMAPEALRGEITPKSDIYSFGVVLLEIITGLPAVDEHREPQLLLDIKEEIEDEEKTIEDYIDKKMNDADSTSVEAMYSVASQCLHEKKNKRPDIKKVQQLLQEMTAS
Assay: IMAP Technology: The kinase activity of IRAK4 is determined by its ability to catalyze the phosphorylation of a fluorescent polypeptide substrate. […] The reaction is initiated by the addition of ATP. After incubation for 30 minutes at 25° C., 60 μl of Progressive IMAP Reagent (Molecular Devices) is added to stop the reaction. Change in RP7030's FP is determined by a FP reader (Analyst HT, LJL BioSystems).

Row | SMILES | pIC50
1 | Cn1cc(NC(=O)c2cccc(-c3ccnc(NCC4CC4)c3)c2)c(C(N)=O)n1 | 6.74
2 | Cn1cc(NC(=O)c2cccc(-c3ccnc(NCC4CC4)c3)n2)c(C(=O)N2CCOCC2)n1 | 5.74
